Test results reported in patent US8618094B2, “Fused substituted aminopyrrolidine derivative” (Daiichi Sankyo Company, Limited, priority 2007, dated 2013).
In brackets after ≈: the same amount, converted by molar mass. Read-outs that look alike come from different tables or passages of the source.

How the values were obtained:
Assay in all cases: Antibacterial activity (MIC), standard method of the Japanese Society of Chemotherapy
Type in all cases: cell-based
S. aureus FDA 209-P = conditions: Staphylococcus aureus, FDA209
Protocol: (§1) Antibacterial activity of the compounds of the present invention was measured in accordance with the standard method specified by the Japanese Society of Chemotherapy.

K. pneumoniae TYPE 1 = conditions: Klebsiella pneumoniae, TYPE1
Protocol: as §1

[1] = test system: M(B). Caterrhalis ATCC25238
Protocol: as §1

H. influenzae ATCC49247 = conditions: Haemophilus influenzae
Protocol: as §1

P. aeruginosa PAO1 = conditions: Pseudomonas aeruginosa
Protocol: as §1

E. coli NIHJ = conditions: Escherichia coli
Protocol: as §1

E. faecalis 19433 = conditions: Enterococcus faecalis
Protocol: as §1

[2] = test system: S. pyogenes JCM5674(ATCC12344); conditions: Streptococcus pyogenes
Protocol: as §1

S. pneumoniae J24 = conditions: Streptococcus pneumoniae
Protocol: as §1

S. pneumoniae 104835 = conditions: Streptococcus pneumoniae
Protocol: as §1

E. cloacae 03400 = conditions: Enterobacter cloacae
Protocol: as §1

S. marcescens 10100 = conditions: Serratia marcescens
Protocol: as §1

S. epidermidis 56500 = conditions: Staphylococcus epidermidis
Protocol: as §1

P. mirabilis 08103 = conditions: Proteus mirabilis
Protocol: as §1

S. aureus 870307 = conditions: Staphylococcus aureus
Protocol: as §1

[3] = M(B). Caterrhalis [sic] ATCC49247 (Table 2), read-out: MIC, M(B). Caterrhalis ATCC49247
[4] = ATCC 25238 / ATCC 49247, H. influenzae ATCC25238 as printed (second half of Table 2), read-out: MIC, H. influenzae ATCC25238

Work on `COc1c(N2C[C@@H]3COCC[C@@]3(N)C2)c(F)cc2c(=O)c(C(=O)O)cn([C@@H]3C[C@@H]3F)c12` [Example 37, 7-[(1S,6S)-1-Amino-4-oxa-8-azabicyclo[4.3.0]nonan-8-yl]-6-fluoro-1-[(1R,2S)-2-fluorocyclopropyl]-1,4-dihydro-8-methoxy-4-oxoquinoline-3-carboxylic acid] yielded an MIC (S. aureus FDA 209-P) of 0.006 µg/mL (≈ 0.0138 µM), an MIC (K. pneumoniae TYPE 1) of 0.1 µg/mL (≈ 0.23 µM) and an MIC [1, 3] of 0.025 µg/mL (≈ 0.0574 µM). The MIC (H. influenzae ATCC49247; [4]) was at most 0.003 µg/mL, the MIC (P. aeruginosa PAO1) was 1.56 µg/mL (≈ 3.58 µM) and the MIC (E. coli NIHJ) was 0.006 µg/mL (≈ 0.0138 µM). For the same compound, the MIC (E. faecalis 19433) was 0.1 µg/mL (≈ 0.23 µM), the MIC [2] was 0.05 µg/mL (≈ 0.115 µM) and the MIC (S. pneumoniae J24) was 0.05 µg/mL (≈ 0.115 µM). The MIC (S. pneumoniae 104835) was 0.39 µg/mL (≈ 0.896 µM), the MIC (E. cloacae 03400) was 0.025 µg/mL (≈ 0.0574 µM) and the MIC (S. marcescens 10100) was 0.2 µg/mL (≈ 0.459 µM). The MIC (S. epidermidis 56500) was 0.012 µg/mL (≈ 0.0276 µM), the MIC (P. mirabilis 08103) was 0.05 µg/mL (≈ 0.115 µM) and the MIC (S. aureus 870307) was 0.05 µg/mL (≈ 0.115 µM).
`COc1c(N2C[C@@H]3CC=CC[C@@]3(N)C2)c(F)cc2c(=O)c(C(=O)O)cn([C@@H]3C[C@@H]3F)c12` [Example 35, 7-[(1S,6S)-1-Amino-8-azabicyclo[4.3.0]non-3-en-8-yl]-6-fluoro-1-[(1R,2S)-2-fluorocyclopropyl]-1,4-dihydro-8-methoxy-4-oxoquinoline-3-carboxylic acid] showed an MIC (S. aureus FDA 209-P) of 0.025 µg/mL (≈ 0.0579 µM), an MIC (K. pneumoniae TYPE 1) of 0.05 µg/mL (≈ 0.116 µM) and an MIC [1, 3] of 0.025 µg/mL (≈ 0.0579 µM). It also gave an MIC (H. influenzae ATCC49247; [4]) of 0.012 µg/mL (≈ 0.0278 µM), an MIC (P. aeruginosa PAO1) of 0.39 µg/mL (≈ 0.904 µM) and an MIC (E. coli NIHJ) of 0.006 µg/mL (≈ 0.0139 µM). It also gave an MIC (E. faecalis 19433) of 0.2 µg/mL (≈ 0.464 µM), an MIC [2] of 0.05 µg/mL (≈ 0.116 µM) and an MIC (S. pneumoniae J24) of 0.05 µg/mL (≈ 0.116 µM). The MIC (S. pneumoniae 104835) was 0.39 µg/mL (≈ 0.904 µM), the MIC (E. cloacae 03400) was 0.012 µg/mL (≈ 0.0278 µM) and the MIC (S. marcescens 10100) was 0.1 µg/mL (≈ 0.232 µM). It also gave an MIC (S. epidermidis 56500) of 0.05 µg/mL (≈ 0.116 µM), an MIC (P. mirabilis 08103) of 0.025 µg/mL (≈ 0.0579 µM) and an MIC (S. aureus 870307) of 0.2 µg/mL (≈ 0.464 µM).
Compound `C[C@H]1COc2c(N3CCN(C)CC3)c(F)cc3c(=O)c(C(=O)O)cn1c23` [LVFX, levofloxacin, reference compound] has an MIC (S. aureus FDA 209-P) of 0.1 µg/mL (≈ 0.277 µM), an MIC (K. pneumoniae TYPE 1) of 0.05 µg/mL (≈ 0.138 µM) and an MIC [1, 3] of 0.025 µg/mL (≈ 0.0692 µM). It also gave an MIC (H. influenzae ATCC49247; [4]) of 0.012 µg/mL (≈ 0.0332 µM), an MIC (P. aeruginosa PAO1) of 0.39 µg/mL (≈ 1.08 µM) and an MIC (E. coli NIHJ) of 0.012 µg/mL (≈ 0.0332 µM). For the same compound, the MIC (E. faecalis 19433) was 0.78 µg/mL (≈ 2.16 µM), the MIC [2] was 0.39 µg/mL (≈ 1.08 µM) and the MIC (S. pneumoniae J24) was 0.78 µg/mL (≈ 2.16 µM). For the same compound, the MIC (S. pneumoniae 104835) was over 6.25 µg/mL, the MIC (E. cloacae 03400) was 0.012 µg/mL (≈ 0.0332 µM) and the MIC (S. marcescens 10100) was 0.05 µg/mL (≈ 0.138 µM). It also gave an MIC (S. epidermidis 56500) of 0.39 µg/mL (≈ 1.08 µM), an MIC (P. mirabilis 08103) of 0.025 µg/mL (≈ 0.0692 µM) and an MIC (S. aureus 870307) of 6.25 µg/mL (≈ 17.3 µM).
Compound `COc1c(N2C[C@H]3[C@@H](C)C[C@@]3(N)C2)c(F)cc2c(=O)c(C(=O)O)cn([C@@H]3C[C@@H]3F)c12` [Example 2, 7-{(1S,5R,6S)-1-Amino-6-methyl-3-azabicyclo[3.2.0]hept-3-yl}-6-fluoro-1-[(1R,2S)-2-fluorocyclopropyl]-1,4-dihydro-8-methoxy-4-oxoquinoline-3-carboxylic acid] has an MIC (S. aureus FDA 209-P) of at most 0.003 µg/mL, an MIC (K. pneumoniae TYPE 1) of 0.1 µg/mL (≈ 0.238 µM) and an MIC ([1]; M(B). Caterrhalis ATCC25238 (first half of Table 2), read-out: MIC, M(B). Caterrhalis ATCC25238) of 0.025 µg/mL (≈ 0.0596 µM). The MIC (H. influenzae ATCC49247; H. influenzae ATCC49247 (first half of Table 2), read-out: MIC, H. influenzae ATCC49247) was 0.006 µg/mL (≈ 0.0143 µM), the MIC (P. aeruginosa PAO1) was 0.78 µg/mL (≈ 1.86 µM) and the MIC (E. coli NIHJ) was 0.025 µg/mL (≈ 0.0596 µM). For the same compound, the MIC (E. faecalis 19433) was 0.05 µg/mL (≈ 0.119 µM), the MIC [2] was 0.025 µg/mL (≈ 0.0596 µM) and the MIC (S. pneumoniae J24) was 0.012 µg/mL (≈ 0.0286 µM). The MIC (S. pneumoniae 104835) was 0.1 µg/mL (≈ 0.238 µM), the MIC (E. cloacae 03400) was 0.025 µg/mL (≈ 0.0596 µM) and the MIC (S. marcescens 10100) was 0.2 µg/mL (≈ 0.477 µM). It also gave an MIC (S. epidermidis 56500) of 0.012 µg/mL (≈ 0.0286 µM), an MIC (P. mirabilis 08103) of 0.012 µg/mL (≈ 0.0286 µM) and an MIC (S. aureus 870307) of 0.1 µg/mL (≈ 0.238 µM).
`COc1c(N2C[C@@H]3CCOC[C@@]3(N)C2)c(F)cc2c(=O)c(C(=O)O)cn([C@@H]3C[C@@H]3F)c12` [Example 43, 7-[(1S,6S)-1-Amino-8-aza-3-oxabicyclo[4,3,0]nonan-8-yl]-6-fluoro-1-[(1R,2S)-2-fluorocyclopropyl]-1,4-dihydro-8-methoxy-4-oxoquinoline-3-carboxylic acid] showed an MIC (S. aureus FDA 209-P) of 0.012 µg/mL (≈ 0.0276 µM), an MIC (K. pneumoniae TYPE 1) of 0.05 µg/mL (≈ 0.115 µM) and an MIC [1, 3] of 0.025 µg/mL (≈ 0.0574 µM). The MIC (H. influenzae ATCC49247; [4]) was 0.006 µg/mL (≈ 0.0138 µM), the MIC (P. aeruginosa PAO1) was 0.78 µg/mL (≈ 1.79 µM) and the MIC (E. coli NIHJ) was 0.006 µg/mL (≈ 0.0138 µM). The MIC (E. faecalis 19433) was 0.2 µg/mL (≈ 0.459 µM), the MIC [2] was 0.05 µg/mL (≈ 0.115 µM) and the MIC (S. pneumoniae J24) was 0.1 µg/mL (≈ 0.23 µM). It also gave an MIC (S. pneumoniae 104835) of 0.78 µg/mL (≈ 1.79 µM), an MIC (E. cloacae 03400) of 0.012 µg/mL (≈ 0.0276 µM) and an MIC (S. marcescens 10100) of 0.2 µg/mL (≈ 0.459 µM). For the same compound, the MIC (S. epidermidis 56500) was 0.05 µg/mL (≈ 0.115 µM), the MIC (P. mirabilis 08103) was 0.025 µg/mL (≈ 0.0574 µM) and the MIC (S. aureus 870307) was 0.2 µg/mL (≈ 0.459 µM).
`COc1c(N2C[C@@H]3CCCN[C@@H]3C2)c(F)cc2c(=O)c(C(=O)O)cn(C3CC3)c12` [MXFX, moxifloxacin, reference compound] showed an MIC (S. aureus FDA 209-P) of 0.05 µg/mL (≈ 0.125 µM), an MIC (K. pneumoniae TYPE 1) of 0.1 µg/mL (≈ 0.249 µM) and an MIC (P. aeruginosa PAO1) of 0.78 µg/mL (≈ 1.94 µM). For the same compound, the MIC (E. faecalis 19433) was 0.2 µg/mL (≈ 0.498 µM), the MIC [2] was 0.2 µg/mL (≈ 0.498 µM) and the MIC (S. pneumoniae J24) was 0.1 µg/mL (≈ 0.249 µM). The MIC (S. pneumoniae 104835) was 3.13 µg/mL (≈ 7.8 µM), the MIC (S. marcescens 10100) was 0.2 µg/mL (≈ 0.498 µM) and the MIC (S. epidermidis 56500) was 0.1 µg/mL (≈ 0.249 µM). It also gave an MIC (P. mirabilis 08103) of 0.025 µg/mL (≈ 0.0623 µM) and an MIC (S. aureus 870307) of 0.78 µg/mL (≈ 1.94 µM).
